Drawing on patent publication US9434734B2, “Substituted pyrazoloquinazolinones and pyrroloquinazolinones as allosteric modulators of group II metabotropic glutamate receptors” (Domain Therapeutics, priority 2012, dated 2016), this text covers IC50 and melting point for twelve compounds.

Data set [1] has as its target T1, human mGluR2 (hmGluR2) transiently over-expressed in HEK-293 cells (Homo sapiens, UniProt Q14416).
T1 construct: expressed in transfected cells; host or cells: HEK-293 cells, transient co-transfection by electroporation
In words: Human mGluR2 negative allosteric modulator evaluation using Ca++ functional assay (agonist and NAM activity). It is filed as cell-based. As to conditions: hmGluR2 in HEK-293 cells, EC80 glutamate, Fluo4AM calcium readout; read-out: mGluR2 negative allosteric modulator activity IC50. As for the experimental part: Human mGluR2 Negative Allosteric Modulator Evaluation Using Ca^++ Functional Assay
Compounds of the present invention were tested successively for their agonist and negative allosteric modulator activities on human mGluR2 (hmGluR2) transiently over-expressed in HEK-293 cells. They exert agonist activity if they are able to activate mGluR2 by themselves, i.e., in absence of the endogenous agonist glutamate; and they exert negative allosteric modulator activity if they decrease the action of the endogenous agonist glutamate.
HEK-293 cells were maintained in Modified Eagle's Medium supplemented with 10% Foetal Calf Serum, 1% Penicillin/Streptomycin and 1% nonessential amino acids at 37° C./5% CO2.
Cells were plated after transfection onto polyornithine coated, clear bottom, black-walled, 96-well plates and cultured for 24 h.
Receptor activity was detected by changes in intracellular calcium measured using the fluorescent Ca^2+ sensitive dye, Fluo4AM (Molecular Probes).
The day of the assay, medium was aspirated and replaced during 3 hours by medium without serum supplemented with 1% Glutamax, 1% Penicillin/Streptomycin and 1% nonessential amino acids. Then, cells were washed with freshly prepared buffer B (HBSS 1× (PAA), Hepes 20 mM, MgSO4-7H2O 1 mM, Na2CO3 3.3 mM, CaCl2-2H2O 1.3 mM, 0.5% BSA, Probenecid 2.5 mM) and loaded at 37° C./5% CO2 for 1.5 hours with buffer B containing 1 μM Fluo4AM, 0.1 mg/mL Pluronic Acid, 7 μg/mL Glutamate Pyruvate Transaminase and 2 mM sodium pyruvate. Afterwards cells were washed twice with buffer B and 50 μL of this buffer were added to each well.
Agonist and negative allosteric modulator activities of compounds were consecutively evaluated on the same cells plate. […] Then, the cells were stimulated by an EC80 glutamate concentration and fluorescence was recorded for additional 60 s. EC80 glutamate concentration is the concentration giving 80% of the maximal glutamate response. Agonist and/or negative allosteric modulator activity(ies) were evaluated in comparison to basal signal or signal evoked by EC80 glutamate alone, respectively.
For potency determination, a dose-response test was performed using 8 concentrations of each compound of the invention. Dose-response curves were fitted using the sigmoidal dose-response (variable slope) analysis in GraphPad Prism program (Graph Pad Inc) and EC50 of agonist/IC50 of negative allosteric modulator activity was calculated. Dose-response experiments were all performed in duplicate, two times independently.

Molecules are shown by their SMILES.

In general, IC50 refers to the point on the concentration scale where inhibition reaches its midpoint. The melting point is the temperature of the solid-liquid transition.

T1 sequence (Q14416 19-872): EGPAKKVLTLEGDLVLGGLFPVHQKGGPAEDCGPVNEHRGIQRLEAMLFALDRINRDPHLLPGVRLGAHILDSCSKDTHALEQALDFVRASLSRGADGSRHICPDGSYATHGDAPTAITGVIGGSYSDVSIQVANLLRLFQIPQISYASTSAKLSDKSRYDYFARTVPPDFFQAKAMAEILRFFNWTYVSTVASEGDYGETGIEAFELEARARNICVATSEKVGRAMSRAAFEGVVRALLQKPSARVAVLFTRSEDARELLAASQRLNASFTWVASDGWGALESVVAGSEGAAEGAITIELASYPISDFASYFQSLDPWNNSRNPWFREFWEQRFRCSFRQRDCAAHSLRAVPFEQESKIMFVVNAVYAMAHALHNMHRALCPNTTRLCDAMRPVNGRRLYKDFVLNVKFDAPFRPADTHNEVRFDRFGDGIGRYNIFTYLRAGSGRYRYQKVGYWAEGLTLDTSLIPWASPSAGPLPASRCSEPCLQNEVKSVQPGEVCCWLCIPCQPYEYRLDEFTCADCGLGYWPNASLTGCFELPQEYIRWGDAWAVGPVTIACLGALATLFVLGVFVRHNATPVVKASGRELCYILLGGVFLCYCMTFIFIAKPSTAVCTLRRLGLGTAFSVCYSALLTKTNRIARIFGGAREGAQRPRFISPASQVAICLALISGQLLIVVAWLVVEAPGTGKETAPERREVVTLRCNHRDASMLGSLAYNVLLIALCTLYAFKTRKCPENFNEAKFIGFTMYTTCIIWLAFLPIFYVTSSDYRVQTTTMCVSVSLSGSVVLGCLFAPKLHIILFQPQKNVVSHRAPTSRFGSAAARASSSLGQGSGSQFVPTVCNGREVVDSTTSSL

In turn, `Cn1c(=O)c2ccc(-c3ncco3)cc2n2nc(-c3ccccc3)cc12` [Example 20, 4-Methyl-8-oxazol-2-yl-2-phenyl-4H-pyrazolo[1,5-a]quinazolin-5-one] came in with a melting point of 228 to 231 °C. Besides, the IC50 in data set [1] is < 1000 nM.
For `Cn1c(=O)c2ccc(-c3cnco3)cc2n2nc(-c3ccccc3)cc12` [Example 21, 4-Methyl-8-oxazol-5-yl-2-phenyl-4H-pyrazolo[1,5-a]quinazolin-5-one], in that order: 222 to 225 °C and < 1000 nM.
Taken in the same sequence, the figures for `Cc1cc(N)ncc1-c1ccc2c(=O)n(C)c3cc(-c4ccccc4)nn3c2c1.Cl` [Example 24, 8-(6-Amino-4-methyl-pyridin-3-yl)-4-methyl-2-phenyl-4H-pyrazolo[1,5-a]quinazolin-5-one] were 235 to 240 °C and < 1000 nM.
Taken in the same sequence, the figures for `Cc1nc(N)ccc1-c1ccc2c(=O)n(C)c3cc(-c4ccccc4)nn3c2c1.Cl` [Example 25, 8-(6-Amino-2-methyl-pyridin-3-yl)-4-methyl-2-phenyl-4H-pyrazolo[1,5-a]quinazolin-5-one] were 218 to 220 °C and < 1000 nM.
`Cc1cc(-c2ccc3c(=O)n(C)c4cc(-c5ccccc5)nn4c3c2)cnc1N.Cl` [Example 26, 8-(6-Amino-5-methyl-pyridin-3-yl)-4-methyl-2-phenyl-4H-pyrazolo[1,5-a]quinazolin-5-one] returned a melting point of 226 to 227 °C. In data set [1], the 50% inhibitory concentration (IC50) was < 1000 nM.
For `CCc1nc(N)ccc1-c1ccc2c(=O)n(C)c3cc(-c4ccccc4)nn3c2c1.Cl` [Example 27, 8-(6-Amino-2-ethyl-pyridin-3-yl)-4-methyl-2-phenyl-4H-pyrazolo[1,5-a]quinazolin-5-one], in that order: 239 to 240 °C and < 1000 nM.
Taken in the same sequence, the figures for `Cl.Cn1c(=O)c2ccc(-c3ccc(N)nn3)cc2n2nc(-c3ccccc3)cc12` [Example 29, 8-(6-Amino-pyridazin-3-yl)-4-methyl-2-phenyl-4H-pyrazolo[1,5-a]quinazolin-5-one] were > 250 °C and < 1000 nM.
For `Cl.Cn1c(=O)c2ccc(-c3cnc(N)cn3)cc2n2nc(-c3ccccc3)cc12` [Example 30, 8-(5-Amino-pyrazin-2-yl)-4-methyl-2-phenyl-4H-pyrazolo[1,5-a]quinazolin-5-one], in that order: 192 to 193 °C and < 1000 nM.
For the compound `Cl.Cn1c(=O)c2ccc(-c3cnc(N)nc3)cc2n2nc(-c3ccccc3)cc12` [Example 31, 8-(2-Amino-pyrimidin-5-yl)-4-methyl-2-phenyl-4H-pyrazolo[1,5-a]quinazolin-5-one], the melting point was > 250 °C. In data set [1], the IC50 was < 1000 nM.
For `Cc1nc(N)cnc1-c1ccc2c(=O)n(C)c3cc(-c4ccccc4)nn3c2c1.Cl` [Example 32, 8-(5-Amino-3-methyl-pyrazin-2-yl)-4-methyl-2-phenyl-4H-pyrazolo[1,5-a]quinazolin-5-one], in that order: 188 to 189 °C and < 1000 nM.
For `Cn1c(=O)c2ccc(-c3cccc(C#N)c3)cc2n2nc(-c3ccccc3)cc12` [Example 35, 3-(4-Methyl-5-oxo-2-phenyl-4,5-dihydro-pyrazolo[1,5-a]quinazolin-8-yl)-benzonitrile], in that order: > 250 °C and < 1000 nM.
For `Cc1cc(-c2ccc3c(=O)n(C)c4cc(-c5ccccc5)nn4c3c2)cc(C)n1.Cl` [Example 37, 8-(2,6-Dimethyl-pyridin-4-yl)-4-methyl-2-phenyl-4H-pyrazolo[1,5-a]quinazolin-5-one], in that order: > 250 °C and < 1000 nM.
